Test results taken from US20030176501A1 (priority 2000, published 2003).

Assays:
[1] = set-up: species or system human; conditions: in vivo
[2] = molecular target: T1, HMG-CoA reductase (Homo sapiens, UniProt P04035); conditions: in vivo, po
T1 sequence (P04035 1-888): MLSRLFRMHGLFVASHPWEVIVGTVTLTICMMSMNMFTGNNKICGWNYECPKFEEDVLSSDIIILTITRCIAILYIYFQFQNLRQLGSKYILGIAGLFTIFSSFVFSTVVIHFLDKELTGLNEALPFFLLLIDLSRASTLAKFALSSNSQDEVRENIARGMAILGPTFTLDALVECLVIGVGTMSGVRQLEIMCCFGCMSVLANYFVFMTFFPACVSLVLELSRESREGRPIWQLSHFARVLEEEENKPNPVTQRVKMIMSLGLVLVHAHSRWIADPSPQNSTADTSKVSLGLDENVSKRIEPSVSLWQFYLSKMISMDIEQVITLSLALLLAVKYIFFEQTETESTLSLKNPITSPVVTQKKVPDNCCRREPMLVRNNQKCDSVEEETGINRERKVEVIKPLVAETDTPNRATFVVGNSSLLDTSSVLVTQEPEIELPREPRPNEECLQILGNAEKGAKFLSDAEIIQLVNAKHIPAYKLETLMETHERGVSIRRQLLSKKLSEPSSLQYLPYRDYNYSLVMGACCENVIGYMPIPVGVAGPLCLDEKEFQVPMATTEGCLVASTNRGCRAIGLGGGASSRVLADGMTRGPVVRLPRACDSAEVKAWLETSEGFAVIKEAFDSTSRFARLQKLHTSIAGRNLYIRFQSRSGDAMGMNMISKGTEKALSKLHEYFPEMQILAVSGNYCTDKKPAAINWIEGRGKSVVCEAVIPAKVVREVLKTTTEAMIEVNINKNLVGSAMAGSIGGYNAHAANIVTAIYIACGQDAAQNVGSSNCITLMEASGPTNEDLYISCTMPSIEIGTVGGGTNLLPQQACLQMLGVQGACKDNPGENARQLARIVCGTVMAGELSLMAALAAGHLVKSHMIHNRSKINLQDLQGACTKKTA

apparent t1/2, effect of itraconazole [1]: essentially unchanged
t½, SV in plasma ([1]; male, human, po): 6.7 (1.7) hr
Cmax, Active Inhibitors [2]: 5.7 ± 3.0 ng eq/mL
SMILES: CCC(C)(C)C(=O)O[C@H]1C[C@@H](C)C=C2C=C[C@H](C)[C@H](CC[C@@H](O)C[C@@H](O)CC(=O)O)[C@H]21 [SVA, dihydroxy open acid simvastatin]
